ChEMBL document CHEMBL1201862, “PubChem BioAssay data set” (2004)
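Compound exposure: 48 hours, 5 concentrations, 96-well plates. Abbreviation: GI50, concentration required for 50% inhibition of growth.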 Activity calls are given as the source filed them. No stated cut-off is given here; in the data, active = GI50 up to about 1.1 µM and inactive = higher. Non-standard residues stand in square brackets, D forms with d. Residues, ends and D or L forms follow the SMILES beside them. *: point of attachment. Bn2Val = CC(C)[C@@H](C(=O)*)N(Cc1ccccc1)Cc1ccccc1; NH(4-Cl-benzyl) = Clc1ccc(CN*)cc1; NMeV = CN[C@H](C(=O)O)C(C)C; dNMeA = CN[C@H](C)C(=O)O

What was measured:
Assay in all cases: NCI anticancer screen, dose series, 48 h
DU-145 = tested on: DU-145
EKVX = tested on: EKVX
U-251 = tested on: U-251
NCI-H522 = tested on: NCI-H522
M14 = tested on: M14
KM12 = tested on: KM12
NCI-H460 = tested on: NCI-H460
HOP-62 = tested on: HOP-62
T47D = tested on: T47D
MDA-MB-435 = tested on: MDA-MB-435
MCF7 = tested on: MCF7
CAKI-1 = tested on: CAKI-1
A549 = tested on: A549
NCI-H23 = tested on: NCI-H23
HCC 2998 = tested on: HCC 2998

Measured: GI50

Cc1c(/N=C/C=C/c2ccccc2)c(=O)n(-c2ccccc2)n1C
inactive: DU-145 33.9 µM | EKVX 27.2 µM | U-251 15.6 µM | NCI-H522 50.8 µM | M14 16.3 µM | KM12 21.3 µM | NCI-H460 87.5 µM | HOP-62 33.3 µM | T47D 23 µM | MDA-MB-435 34.4 µM | MCF7 21.9 µM | CAKI-1 34.7 µM | A549 > 100 µM | NCI-H23 23.4 µM

COC(=O)c1cn(CCCC(=O)O)nn1
inactive: DU-145 > 100 µM | EKVX > 100 µM | U-251 > 100 µM | KM12 > 100 µM | NCI-H460 > 100 µM | HCC 2998 > 100 µM | HOP-62 > 100 µM | T47D > 100 µM | MDA-MB-435 > 100 µM | MCF7 > 100 µM | CAKI-1 > 100 µM | A549 > 100 µM | NCI-H23 > 100 µM

COc1ccc(/C=C2\CCS(=O)(=O)c3ccccc3C2=O)cc1
inactive: DU-145 23.2 µM | EKVX 19.1 µM | U-251 17.8 µM | M14 34.4 µM | KM12 16.6 µM | NCI-H460 21.7 µM | HCC 2998 20 µM | HOP-62 36.3 µM | T47D 22.7 µM | MDA-MB-435 26.9 µM | MCF7 35.4 µM | CAKI-1 26.5 µM | A549 39.4 µM | NCI-H23 25.7 µM

COc1ccc(-c2cc(-c3ccncc3)nc(N)c2-c2ccc(F)cc2)cc1
inactive: EKVX > 100 µM | U-251 > 100 µM | NCI-H522 11.1 µM | M14 42 µM | KM12 33.8 µM | NCI-H460 15.5 µM | HOP-62 45.4 µM | T47D 80.9 µM | MDA-MB-435 21.2 µM | MCF7 24.3 µM | CAKI-1 32.3 µM | A549 > 100 µM | NCI-H23 76 µM

CCOC(=O)c1cn(C)c(=S)n2c1nc1ccccc12
inactive: DU-145 > 100 µM | EKVX > 100 µM | U-251 > 100 µM | M14 > 100 µM | KM12 98.9 µM | NCI-H460 45.6 µM | HCC 2998 > 100 µM | HOP-62 > 100 µM | T47D > 100 µM | MDA-MB-435 > 100 µM | MCF7 44.6 µM | CAKI-1 91.4 µM | A549 62.1 µM | NCI-H23 91.8 µM

COc1ccc2cc(Oc3ccc(Cl)cc3)c(=O)oc2c1
inactive: DU-145 > 100 µM | EKVX > 100 µM | U-251 > 10 µM | NCI-H522 > 100 µM | M14 > 100 µM | KM12 > 100 µM | NCI-H460 > 100 µM | HCC 2998 > 10 µM | HOP-62 50.1 µM | T47D > 100 µM | MCF7 > 100 µM | CAKI-1 > 100 µM | A549 > 100 µM | NCI-H23 > 100 µM

CCN(CC)c1ccc2cc(C(=O)Nc3ccccc3OC)c(=N)oc2c1
inactive: DU-145 28.2 µM | EKVX 32.8 µM | U-251 10.1 µM | NCI-H522 10.4 µM | M14 35.2 µM | KM12 33.1 µM | NCI-H460 5.16 µM | HCC 2998 21.8 µM | HOP-62 12 µM | MDA-MB-435 34.2 µM | MCF7 16.3 µM | CAKI-1 23.7 µM | A549 21.8 µM | NCI-H23 20.4 µM

COc1cc(C2=C(C#N)C(N)OC3=C2COc2ccccc23)cc(OC)c1OC (configuration not stated)
inactive: DU-145 10.6 µM | EKVX 16.2 µM | U-251 14.7 µM | M14 42 µM | KM12 81.7 µM | NCI-H460 19.4 µM | HCC 2998 14.4 µM | HOP-62 6.62 µM | MDA-MB-435 34.3 µM | MCF7 > 100 µM | A549 17.5 µM | NCI-H23 33.9 µM

S=C1SC(=N\c2ccccc2)/C(=N/c2ccccc2)N1c1ccc2ccccc2c1
inactive: DU-145 > 100 µM | U-251 > 100 µM | NCI-H522 > 100 µM | M14 > 100 µM | KM12 > 100 µM | NCI-H460 > 10 µM | HCC 2998 > 100 µM | HOP-62 > 100 µM | T47D > 100 µM | MDA-MB-435 > 100 µM | MCF7 > 100 µM | CAKI-1 > 100 µM | NCI-H23 > 100 µM

C=CCN(CCN(CC=C)S(=O)(=O)c1ccc(C)cc1)S(=O)(=O)c1ccc(C)cc1
inactive: DU-145 > 100 µM | U-251 > 100 µM | NCI-H522 > 100 µM | M14 > 100 µM | KM12 > 100 µM | NCI-H460 > 100 µM | HCC 2998 > 100 µM | T47D > 100 µM | MDA-MB-435 > 100 µM | MCF7 > 100 µM | A549 > 100 µM | NCI-H23 > 100 µM

C[C@@H]1C[C@@H](O)[C@@]2(O)C13CC(=O)OC(C3)[C@@H](C)[C@@]2(C)CO (some centres not stated)
inactive: DU-145 > 100 µM | EKVX > 100 µM | U-251 > 100 µM | NCI-H522 > 100 µM | M14 > 100 µM | KM12 > 100 µM | NCI-H460 > 100 µM | HCC 2998 > 100 µM | HOP-62 > 100 µM | T47D > 100 µM | MDA-MB-435 > 100 µM | MCF7 > 100 µM | A549 > 100 µM | NCI-H23 > 100 µM

CCOC(=O)NC(Nc1ccc(S(=O)(=O)Nc2ccc(OC)nn2)cc1)(C(F)(F)F)C(F)(F)F
inactive: DU-145 43.5 µM | EKVX 37 µM | U-251 17.9 µM | M14 18 µM | KM12 30.8 µM | NCI-H460 41.6 µM | HCC 2998 > 100 µM | HOP-62 25.8 µM | T47D > 100 µM | MDA-MB-435 14.5 µM | MCF7 36.4 µM | CAKI-1 > 100 µM | A549 35.3 µM | NCI-H23 31.3 µM

O=[N+]([O-])c1ccc(/C=N\N=c2/ccc([N+](=O)[O-])c[nH]2)cc1
inactive: DU-145 > 100 µM | EKVX > 100 µM | U-251 69 µM | NCI-H522 > 100 µM | M14 > 100 µM | KM12 > 100 µM | NCI-H460 > 100 µM | HCC 2998 > 100 µM | HOP-62 > 100 µM | T47D > 100 µM | MDA-MB-435 > 100 µM | MCF7 > 100 µM | A549 > 100 µM | NCI-H23 > 100 µM

O=C(O)C1(Cc2ccccc2)Cc2ccccc2C1
inactive: DU-145 > 100 µM | EKVX > 100 µM | U-251 > 100 µM | NCI-H522 > 100 µM | M14 > 100 µM | KM12 > 100 µM | NCI-H460 > 100 µM | HCC 2998 > 100 µM | HOP-62 > 100 µM | T47D > 100 µM | MDA-MB-435 > 100 µM | MCF7 > 100 µM | A549 > 100 µM | NCI-H23 > 100 µM

CCOC(=O)Oc1cc2c(ccn2C)c2c1c1ccccc1n2C(=O)OCC
inactive: DU-145 > 100 µM | EKVX > 100 µM | U-251 > 100 µM | NCI-H522 > 100 µM | M14 > 100 µM | KM12 > 100 µM | NCI-H460 > 100 µM | HOP-62 > 100 µM | T47D > 100 µM | MDA-MB-435 > 100 µM | MCF7 > 100 µM | CAKI-1 > 100 µM | A549 > 100 µM | NCI-H23 > 100 µM

Cc1oc(N)c(S(=O)(=O)c2ccc(Cl)cc2)c1C
inactive: DU-145 > 100 µM | EKVX 45 µM | U-251 > 100 µM | NCI-H522 30 µM | M14 29.6 µM | KM12 37.1 µM | NCI-H460 22.2 µM | HCC 2998 23.8 µM | T47D 31.2 µM | MDA-MB-435 55.3 µM | MCF7 50.4 µM | A549 34.4 µM | NCI-H23 32.8 µM

C[C@H]1SC(c2ccc(Cl)cc2Cl)N(NC(=O)c2ccncc2)C1=O (some centres not stated)
inactive: DU-145 38.1 µM | EKVX 31.1 µM | U-251 40.6 µM | NCI-H522 22.6 µM | M14 21.8 µM | KM12 36.7 µM | NCI-H460 45.5 µM | HOP-62 33.7 µM | T47D 37.1 µM | MDA-MB-435 23.9 µM | MCF7 8.59 µM | CAKI-1 > 100 µM | NCI-H23 33.3 µM

C[N+](C)(CCCCCC[N+](C)(C)CCCN1C(=O)c2cccc3cccc(c23)C1=O)CCCN1C(=O)c2cccc3cccc(c23)C1=O
inactive: DU-145 > 100 µM | EKVX > 100 µM | U-251 > 100 µM | NCI-H522 > 100 µM | KM12 > 100 µM | NCI-H460 > 100 µM | T47D > 100 µM | MDA-MB-435 > 100 µM | MCF7 > 100 µM | CAKI-1 78 µM | A549 > 100 µM | NCI-H23 > 100 µM

O=C(NC1CCN(Cc2ccccc2)CC1)c1ccccc1I
inactive: DU-145 61.9 µM | EKVX 43.3 µM | U-251 23.2 µM | NCI-H522 14.4 µM | M14 18.7 µM | KM12 17.3 µM | NCI-H460 24.7 µM | HOP-62 19.8 µM | T47D 22.2 µM | MDA-MB-435 17.4 µM | CAKI-1 53.5 µM | A549 31.6 µM | NCI-H23 26.2 µM

CC(C)[C@H](NC(=O)[C@H](C(C)C)N(Cc1ccccc1)Cc1ccccc1)C(=O)N(C)[C@H](C(=O)N1CCC[C@H]1C(=O)N(C)[C@H](C)C(=O)NCc1ccc(Cl)cc1)C(C)C (Bn2Val-V[NMeV]P[dNMeA]-{NH(4-Cl-benzyl)})
inactive: DU-145 4.11 µM | EKVX 2.46 µM | U-251 2.86 µM | NCI-H522 2.06 µM | M14 4.01 µM | KM12 3.38 µM | NCI-H460 3.96 µM | HOP-62 4.38 µM | T47D 3.51 µM | MDA-MB-435 4.03 µM | CAKI-1 5.94 µM | A549 4.04 µM | NCI-H23 3.37 µM
